Data published in PubChem BioAssay (NCI).
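96-well plates; 48 h exposure; 5 concentrations. Endpoints by linear interpolation between flanking doses. Not reached: highest tested concentration assigned. GI50 = concentration required for 50% inhibition of growth. Definition used: TGI = concentration required for complete inhibition of growth.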

What was measured:
Assay in all cases: growth of human tumour cells (NCI), 48 h
[1] = system: SR leukemia
[2] = system: MOLT-4 leukemia
[3] = system: HCC-2998 colon
[4] = system: SK-MEL-2 melanoma
[5] = system: HCT-116 colon
[6] = system: EKVX NSCLC
[7] = system: DU-145 prostate
[8] = system: SK-MEL-5 melanoma
[9] = system: OVCAR-4 ovarian
[10] = system: NCI-H226 lung

| Compound | GI50 [1] [µM] | TGI [1] [µM] | GI50 [2] [µM] | TGI [2] [µM] | GI50 [3] [µM] | TGI [3] [µM] | GI50 [4] [µM] | TGI [4] [µM] | GI50 [5] [µM] | TGI [5] [µM] | GI50 [6] [µM] | TGI [6] [µM] | GI50 [7] [µM] | TGI [7] [µM] | GI50 [8] [µM] | TGI [8] [µM] | GI50 [9] [µM] | TGI [9] [µM] | GI50 [10] [µM] | TGI [10] [µM] |
| --- | --- | --- | --- | --- | --- | --- | --- | --- | --- | --- | --- | --- | --- | --- | --- | --- | --- | --- | --- | --- |
| COc1ccc(-c2ccncc2)cc1C(N)=O | > 25 | > 25 | > 25 | > 25 | > 25 | > 25 | > 25 | > 25 | > 25 | > 25 | > 25 | > 25 | > 25 | > 25 | > 25 | > 25 | > 25 | > 25 | > 25 | > 25 |
| NS(=O)(=O)c1ccc(-n2nc3c(c2-c2ccc(Cl)cc2)Cc2ccccc2-3)cc1 | 5.82 | 21.3 | 5.51 | 23.1 | 18.3 | 35.7 | 13.6 | 29.3 | 4.06 | 21.3 | 17.1 | 33.5 | 15.1 | 33 | 1.36 | 3.33 | 15 | 30.3 | 16.8 | 35.4 |
| [C](#Cc1ccccc1)[Hg][C]#Cc1ccccc1 | 23.5 | > 100 | 34.3 | > 100 | 47.7 | 82.6 | 37.7 | > 100 | 72.5 | > 100 | > 100 | > 100 | 48.2 | > 100 | 53.3 | > 100 | 18.6 | 45.8 | 28.1 | 63.2 |
| COc1ccc2cc(/C=C/C(=O)c3ccc(Cl)cc3Cl)ccc2c1 | 9.19 | 28.7 | 11.3 | 35.5 | 20.6 | 48.8 | 24 | 69.9 | 16.9 | 46 | 41.7 | > 100 | 32.6 | > 100 | 20.9 | 45.2 | 74.1 | > 100 | 30.4 | > 100 |
| O=C(/C=C/C12c3ccccc3C(c3ccccc31)C1C(=O)NC(=O)C12)c1ccc(Cl)cc1Cl (stereo not drawn) | 1.59 | 4.68 | 1.77 | 5.58 | 1.81 | 3.41 | 1.9 | 3.62 | 1.61 | 3.05 | 1.86 | 4.16 | 1.83 | 3.43 | 1.71 | 3.34 | 1.86 | 3.82 | 2.14 | 5.91 |
| COc1cc(F)c(F)c(Nc2ccc(I)cc2F)c1NS(=O)(=O)C1(C[C@H](O)CO)CC1 | 6.56 | > 10 | > 6.02 | > 10 | 0.0206 | > 4.24 | 0.0416 | > 2.01 | 0.201 | > 10 | 0.323 | > 10 | 5.02 | > 10 | 1.02 | > 10 | 3.44 | > 10 | > 3.42 | > 10 |
| CC(=O)Oc1ccc(C23c4ccccc4C2(OC(C)=O)c2cc(OC(C)=O)ccc23)cc1 (stereo not drawn) | 3.14 | 24.2 | 7.27 | 72.2 | 2.91 | 8.46 | 27.7 | 94.3 | 3.56 | 12.7 | 3.52 | 16.6 | 6.88 | 20.7 | 6.19 | 20.3 | 30 | > 100 | 20.4 | 63.2 |
| COc1cccc(/C(C#N)=C/c2nc3c(N4CCOCC4)nc(Cl)nc3n2C)c1 | 0.355 | 2.44 | 1.27 | 4.79 | 1.69 | 3.24 | 1.4 | 2.81 | 0.171 | 0.433 | 1.44 | 2.84 | 1.29 | 2.58 | 1.73 | 3.14 | 1.23 | 2.59 | 1.56 | 3.35 |
| O=C1c2ccccc2-[n+]2ccc3c([nH]c4ccccc43)c21 | – | 0.846 | – | 0.613 | – | 0.484 | – | 0.427 | – | 0.51 | – | 1.6 | – | 2.54 | – | 0.4 | – | 2.02 | – | 3.08 |
| CC(C)c1c(-c2ccccc2)nc2c(C#N)c[nH]n2c1=O | 31.1 | > 100 | 32 | > 100 | 29 | > 100 | 27.7 | 78.8 | 30.5 | > 100 | 49.4 | > 100 | 37.1 | > 100 | 19.6 | 40.4 | 25.6 | > 90 | 27 | > 87.7 |
| COc1ccc2c(=O)cc(-c3ccccc3)[nH]c2c1 | 0.258 | – | 1.25 | > 100 | 1.27 | 8.9 | – | > 100 | 0.446 | > 100 | 2.25 | > 100 | 1.24 | > 53.1 | 0.323 | 7.4 | 3.28 | > 100 | 2.14 | > 100 |
